# Experimental data taken from patent US8829200B2, “Benzimidazole inhibitors of leukotriene production” (Boehringer Ingelheim International GmbH, priority 2010, dated 2014).
# Columns and labels:
# [1] = target: recombinant human FLAP protein (Homo sapiens (Human), UniProt P20292); test: FLAP binding assay (Scintillation Proximity Assay); conditions: displacement of [125I]L-691,831, membranes of sf9 cells expressing human FLAP; read-out: SPA IC50
# Experimental: Compounds are assessed for the ability to bind to FLAP in a binding assay that measures compound-specific displacement of an iodinated (^125I) FLAP inhibitor via a Scintillation Proximity Assay format (adapted from S. Charleson et al., Mol. Pharmacol., 1992, 41, 873-879).
# Cell pellets produced from sf9 insect cells expressing recombinant human FLAP protein are resuspended in buffer A [15 mM Tris-HCl (pH 7.5), 2 mM MgCl2, 0.3 mM EDTA, 1 mM PMSF]. The cells are lysed with a Dounce homogenizer and the material is centrifuged at 10,000×g for 10 minutes. The supernatant is then collected and centrifuged at 100,000×g for 60 minutes. To prepare membrane protein for an assay, an aliquot of the 100,000×g pellet is resuspended in 1 ml of buffer A, Dounce homogenized, and finally subjected to polytron mixing (30 seconds). Membrane protein (25 μl, 5 μg) is mixed with WGA SPA beads (Amersham) and stirred for 1 h. To an assay plate (Perkin Elmer FlexiPlate) is added 25 μl of test compound prepared in Binding buffer [100 mM Tris (pH 7.5), 140 mM NaCl, 5% glycerol, 2 mM EDTA, 0.5 mM TCEP, 0.05% Tween 20], 25 μl of [^125I]L-691,831 (an iodinated analog of MK-591, Charleson et al. Mol. Pharmacol., 41, 873-879, 1992) and finally 50 μl of the bead/protein mixture. (final concentrations: beads, 200 μg/well; protein, 5 μg/well; [^125I] probe, 0.08 nM/well (17 nCi/well). The plates are shaken for 2 h before reading on a Microbeta plate reader. Non-specific binding is determined by the addition of 10 μM cold L-691,831 compound.
# [2] = tested on: synthesis of LTB4 in human whole blood; test: human whole blood LTB4 production inhibition assay; type: cell-based; conditions: heparinized human whole blood, calcimycin-stimulated, plasma LTB4; read-out: hWB IC50
# Experimental: Compounds are additionally tested in a human whole blood assay to determine their ability to inhibit the synthesis of LTB4 in a cellular system. Compounds are combined with heparinized human whole blood and incubated for 15 minutes at 37° C. Calcimycin ([…], prepared in phosphate-buffered saline, pH 7.4) is then added and the mixture is incubated for another 30 minutes at 37° C. The samples are centrifuged for 5 min at low speed (1500×g) and the plasma layer is removed. Plasma LTB4 concentrations are then measured using an antibody-based homogenous time-resolved fluorescence method (CisBio, Bedford, Mass.).
# Sequence of recombinant human FLAP protein (P20292 whole entry): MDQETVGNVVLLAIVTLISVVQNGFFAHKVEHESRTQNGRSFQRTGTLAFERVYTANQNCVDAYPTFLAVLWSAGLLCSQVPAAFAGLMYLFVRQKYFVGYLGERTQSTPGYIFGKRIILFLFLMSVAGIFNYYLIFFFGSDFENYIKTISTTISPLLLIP
SMILES,IC50 [1] [nM],IC50 [2] [nM]
"CC(C)(C)n1c(-c2cc(C#N)ccc2C(=O)NS(C)(=O)=O)nc2cc(-c3cnc(N)nc3)ccc21 [Example 11, N-{2-[5-(2-Amino-pyrimidin-5-yl)-1-tert-butyl-1H-benzoimidazol-2-yl]-4-cyano-benzoyl}-methanesulfonamide]",55.6,–
"CNC(=O)c1ccc(-c2nn[nH]n2)cc1-c1nc2cc(-c3cnc(N)nc3)ccc2n1C(C)(C)C [Example 9, 2-[5-(2-Amino-pyrimidin-5-yl)-1-tert-butyl-1H-benzoimidazol-2-yl]-N-methyl-4-(2H-tetrazol-5-yl)-benzamide]",111,> 5000
"CC(C)(C)n1c(-c2ccccc2C(N)=O)nc2cc(-c3cnc(N)nc3)ccc21 [Example 14, 2-[5-(2-Amino-pyrimidin-5-yl)-1-tert-butyl-1H-benzoimidazol-2-yl]-benzamide]",–,1150
"CNC(=O)c1cc(F)c(F)cc1-c1nc2cc(-c3cnc(N)nc3)ccc2n1C(C)(C)C [Example 5, 2-[5-(2-Amino-pyrimidin-5-yl)-1-tert-butyl-1H-benzoimidazol-2-yl]-4,5-difluoro-N-methyl-benzamide]",–,357
"CC(C)(C)n1c(-c2cc(C#N)ccc2C(=O)NC#N)nc2cc(-c3cnc(N)nc3)ccc21 [Example 10, 2-[5-(2-Amino-pyrimidin-5-yl)-1-tert-butyl-1H-benzoimidazol-2-yl]-4-cyano-N-cyano-benzamide]",6.09,–
"CNC(=O)c1ccc(F)cc1-c1nc2cc(-c3cnc(N)nc3)ccc2n1C(C)(C)C [Example 6, 2-[5-(2-Amino-pyrimidin-5-yl)-1-tert-butyl-1H-benzoimidazol-2-yl]-4-fluoro-N-methyl-benzamide]",5.07,130
"CNC(=O)c1cc(F)ccc1-c1nc2cc(-c3cnc(N)nc3)ccc2n1C(C)(C)C [Example 33, 2-[5-(2-Amino-pyrimidin-5-yl)-1-tert-butyl-1H-benzoimidazol-2-yl]-5-fluoro-N-methyl-benzamide]",20,3080
"CNC(=O)c1ccc(C#N)cc1-c1nc2cc(-c3cnc(N)nc3)ccc2n1C(C)(C)C [Example 8, 2-[5-(2-Amino-pyrimidin-5-yl)-1-tert-butyl-1H-benzoimidazol-2-yl]-4-cyano-N-methyl-benzamide]",7.4,94
"CC(C)(C)n1c(-c2cccc(C(=O)O)c2)nc2cc(-c3cnc(N)nc3)ccc21 [Example 16, 3-[5-(2-Amino-pyrimidin-5-yl)-1-tert-butyl-1H-benzoimidazol-2-yl]-benzoic acid]",645,–
"CN(C)CCNC(=O)c1ccccc1-c1nc2cc(-c3cnc(N)nc3)ccc2n1C(C)(C)C [Example 24, 2-[5-(2-Amino-pyrimidin-5-yl)-1-tert-butyl-1H-benzoimidazol-2-yl]-N-(2-dimethylamino-ethyl)-benzamide]",140,2870
"CNC(=O)c1ccccc1-c1nc2cc(-c3cnc(N)nc3)ccc2n1C(C)(C)C [Example 4, 2-[5-(2-Amino-pyrimidin-5-yl)-1-tert-butyl-1H-benzoimidazol-2-yl]-N-methyl-benzamide]",11.4,433
"CC(C)(C)n1c(-c2ccccc2C(=O)NC2CC2)nc2cc(-c3cnc(N)nc3)ccc21 [Example 2, 2-[5-(2-Amino-pyrimidin-5-yl)-1-tert-butyl-1H-benzoimidazol-2-yl]-N-cyclopropyl-benzamide]",25.2,2190
"COc1cncc(-c2ccc3c(c2)nc(-c2cccc(C(N)=O)c2)n3C(C)(C)C)c1 [Example 35, 3-[1-tert-Butyl-5-(5-methoxy-pyridin-3-yl)-1H-benzoimidazol-2-yl]-benzamide]",4700,–
"CC(C)(C)n1c(-c2ccccc2C(=O)Nc2ccncc2)nc2cc(-c3cnc(N)nc3)ccc21 [Example 3, 2-[5-(2-Amino-pyrimidin-5-yl)-1-tert-butyl-1H-benzoimidazol-2-yl]-N-pyridin-4-yl-benzamide]",0.91,763
"CC(C)(C)NC(=O)c1ccccc1-c1nc2cc(-c3cnc(N)nc3)ccc2n1C(C)(C)C [Example 21, 2-[5-(2-Amino-pyrimidin-5-yl)-1-tert-butyl-1H-benzoimidazol-2-yl]-N-tert-butyl-benzamide]",14.7,3290
"CCNC(=O)c1ccc(F)cc1-c1nc2cc(-c3cnc(N)nc3)ccc2n1C(C)(C)C [Example 30, 2-[5-(2-Amino-pyrimidin-5-yl)-1-tert-butyl-1H-benzoimidazol-2-yl]-N-ethyl-4-fluoro-benzamide]",–,413
"CN(C)C(=O)c1ccccc1-c1nc2cc(-c3cnc(N)nc3)ccc2n1C(C)(C)C [Example 29, 2-[5-(2-Amino-pyrimidin-5-yl)-1-tert-butyl-1H-benzoimidazol-2-yl]-N,N-dimethyl-benzamide]",200,3050
"CC(C)(C)n1c(-c2ccccc2C(=O)NCC2CCCO2)nc2cc(-c3cnc(N)nc3)ccc21 (stereo not shown) [Example 18, 2-[5-(2-Amino-pyrimidin-5-yl)-1-tert-butyl-1H-benzoimidazol-2-yl]-N-(tetrahydro-furan-2-ylmethyl)-benzamide]",18.8,2440
"CC(C)NC(=O)c1ccccc1-c1nc2cc(-c3cnc(N)nc3)ccc2n1C(C)(C)C [Example 26, 2-[5-(2-Amino-pyrimidin-5-yl)-1-tert-butyl-1H-benzoimidazol-2-yl]-N-isopropyl-benzamide]",34.6,4900
"CNC(=O)c1cc(OC)ccc1-c1nc2cc(-c3cnc(N)nc3)ccc2n1C(C)(C)C [Example 7, 2-[5-(2-Amino-pyrimidin-5-yl)-1-tert-butyl-1H-benzoimidazol-2-yl]-5-methoxy-N-methyl-benzamide]",21.9,414
"CC(C)(C)n1c(-c2ccccc2C(=O)N2CCOCC2)nc2cc(-c3cnc(N)nc3)ccc21 [Example 28, {2-[5-(2-Amino-pyrimidin-5-yl)-1-tert-butyl-1H-benzoimidazol-2-yl]-phenyl}-morpholin-4-yl-methanone]",520,> 5000
"CNC(=O)c1cccc(F)c1-c1nc2cc(-c3cnc(N)nc3)ccc2n1C(C)(C)C [Example 34, 2-[5-(2-Amino-pyrimidin-5-yl)-1-tert-butyl-1H-benzoimidazol-2-yl]-3-fluoro-N-methyl-benzamide]",15.8,906
"COC(=O)c1ccccc1-c1nc2cc(-c3cnc(N)nc3)ccc2n1C(C)(C)C [Example 17, 2-[5-(2-Amino-pyrimidin-5-yl)-1-tert-butyl-1H-benzoimidazol-2-yl]-benzoic acid methyl ester]",22,–
"CN(C(=O)c1ccccc1-c1nc2cc(-c3cnc(N)nc3)ccc2n1C(C)(C)C)c1ccccn1 [Example 27, 2-[5-(2-Amino-pyrimidin-5-yl)-1-tert-butyl-1H-benzoimidazol-2-yl]-N-methyl-N-pyridin-2-yl-benzamide]",180,–
"CN(C)C(=O)c1ccc(F)c(-c2nc3cc(-c4cnc(N)nc4)ccc3n2C(C)(C)C)c1 [Example 12, 3-[5-(2-Amino-pyrimidin-5-yl)-1-tert-butyl-1H-benzoimidazol-2-yl]-4-fluoro-N,N-dimethyl-benzamide]",610,> 5000
"COCCNC(=O)c1ccccc1-c1nc2cc(-c3cnc(N)nc3)ccc2n1C(C)(C)C [Example 19, 2-[5-(2-Amino-pyrimidin-5-yl)-1-tert-butyl-1H-benzoimidazol-2-yl]-N-(2-methoxy-ethyl)-benzamide]",43.8,2870
"CC(C)(C)n1c(-c2cc(F)ccc2C(=O)NCc2cccnc2)nc2cc(-c3cnc(N)nc3)ccc21 [Example 32, 2-[5-(2-Amino-pyrimidin-5-yl)-1-tert-butyl-1H-benzoimidazol-2-yl]-4-fluoro-N-pyridin-3-ylmethyl-benzamide]",–,939
"CC(C)(C)n1c(-c2ccccc2C(=O)O)nc2cc(-c3cnc(N)nc3)ccc21 [Example 1, 2-[5-(2-Amino-pyrimidin-5-yl)-1-tert-butyl-1H-benzoimidazol-2-yl]-benzoic acid]",1400,–
"CC(C)(C)n1c(-c2cc(F)ccc2C(=O)Nc2cccnc2)nc2cc(-c3cnc(N)nc3)ccc21 [Example 31, 2-[5-(2-Amino-pyrimidin-5-yl)-1-tert-butyl-1H-benzoimidazol-2-yl]-4-fluoro-N-pyridin-3-yl-benzamide]",–,1950
